From article PMC4224572, “Peptidomimetic inhibitors of N-myristoyltransferase from human malaria and leishmaniasis parasites” (Organic & Biomolecular Chemistry, 2014)
Square brackets hold non-standard residues; d marks the D form. Peptide text beside a SMILES is read from it. Aun = NCCCCCCCCCCC(=O)O; Aoc = NCCCCCCCC(=O)O

Columns and labels:
LdNMT = experiment: Fluorogenic NMT inhibition assay, LdNMT; type: biochemical, L. donovani; settings: for IC50: recombinant enzyme, mean of duplicate or triplicate experiments
Excerpt: (§1) 2-Methylimidazolyl analogues were synthesized building on the hypothesis that 2-methylimidazole (pK a ∼ 7.9)[18] is a reasonable mimetic for N-terminal Gly in the peptide substrate (pK a ∼ 8.0).[19] To cover a range of basicity, imidazolyl (pK a ∼ 7.0) and amine analogues (pK a ∼ 10.0) were also synthesized, each exploring a range of chain lengths (n) (Table 1). To probe versatility at the C-terminus, primary amides, carboxylic acids, 2-cyclohexylethyl and 2-(1-cyclohexenyl)ethyl amides were incorporated. Using a previously reported fluorogenic assay,[20] inhibitors were tested against the parasitic enzymes and HsNMT1 in order to explore their selectivity against a relevant host enzyme. […] Further reduction of the chain length (11 and 12, n = 8 and 7, respectively) led to loss of detectable activity against Plasmodium NMTs and significant loss of activity against LdNMT and HsNMT1.

HsNMT1 = molecular target: T1, HsNMT1 (Homo sapiens, UniProt P30419); experiment: Fluorogenic NMT inhibition assay, HsNMT1; type: biochemical, H. sapiens; settings: for IC50: mean of duplicate or triplicate experiments
T1 sequence (P30419 1-496): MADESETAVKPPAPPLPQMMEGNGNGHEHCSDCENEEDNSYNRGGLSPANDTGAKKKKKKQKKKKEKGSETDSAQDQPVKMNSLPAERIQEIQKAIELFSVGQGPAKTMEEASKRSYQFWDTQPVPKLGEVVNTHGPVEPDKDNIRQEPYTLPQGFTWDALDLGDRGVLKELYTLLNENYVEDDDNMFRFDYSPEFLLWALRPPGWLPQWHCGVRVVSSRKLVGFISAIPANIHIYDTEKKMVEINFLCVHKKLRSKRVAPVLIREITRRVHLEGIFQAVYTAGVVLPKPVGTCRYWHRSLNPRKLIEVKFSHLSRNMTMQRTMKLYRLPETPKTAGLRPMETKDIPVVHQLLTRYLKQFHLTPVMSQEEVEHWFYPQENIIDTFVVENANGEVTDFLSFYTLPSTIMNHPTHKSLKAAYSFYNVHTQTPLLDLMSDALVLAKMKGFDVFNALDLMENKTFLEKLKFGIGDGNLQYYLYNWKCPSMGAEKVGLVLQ
Excerpt: 2-Methylimidazolyl analogues were synthesized building on the hypothesis that 2-methylimidazole (pK a ∼ 7.9)[18] is a reasonable mimetic for N-terminal Gly in the peptide substrate (pK a ∼ 8.0).[19] To cover a range of basicity, imidazolyl (pK a ∼ 7.0) and amine analogues (pK a ∼ 10.0) were also synthesized, each exploring a range of chain lengths (n) (Table 1). To probe versatility at the C-terminus, primary amides, carboxylic acids, 2-cyclohexylethyl and 2-(1-cyclohexenyl)ethyl amides were incorporated. Using a previously reported fluorogenic assay,[20] inhibitors were tested against the parasitic enzymes and HsNMT1 in order to explore their selectivity against a relevant host enzyme.

Leishmania NMT = experiment: Substrate characteristics in Leishmania NMT; type: biochemical; settings: for Km: read-out: KM as substrate; for substrate activity: compound 10 tested up to 40 μM
Procedure: Unexpectedly, the electron maps indicated a mixture of ligand structures such that ∼20% of the electron density represents a N-myristoylated 10 product complex with the CoA by-product in LmNMT (Fig. 2D). This is the only structural evidence for a product complex in any N-myristoyltransferase, and captures and supports the proposed mechanism of action of NMT just prior to regeneration of the active enzyme. Kinetic experiments were performed to study 10 both as a potential substrate and as an NMT inhibitor. […] The N-myristoylation of 10 observed above therefore presumably occurs within the crystal where all reagents are present at high effective concentrations, and turnover is blocked by limited egress of products.
To probe the degree to which 10 acts as a true peptidomimetic, we investigated the potential to switch from inhibitor to a peptidomimetic substrate. […] In native NMT substrates, N-terminal Gly is preferred to the exclusion of all other residues, with relatively non-sterically demanding residues such as alanine. […]
[Substrate] (µM) [S b[Substrate] (µM) tt ]
Hs pp60src(2-9) Compound 10 Compound 27 Compound 28
Figure S4: Substrate characteristics of H. sapiens p60src(2-16), compound 10 and modified
inhibitors 27 and 28 in Leishmania NMT.

PvNMT = molecular target: T2, PvNMT (Plasmodium vivax, UniProt A5K1A2); experiment: Fluorogenic NMT inhibition assay, PvNMT; type: biochemical; settings: recombinant enzyme; mean of duplicate or triplicate experiments
T2 sequence (A5K1A2 1-410): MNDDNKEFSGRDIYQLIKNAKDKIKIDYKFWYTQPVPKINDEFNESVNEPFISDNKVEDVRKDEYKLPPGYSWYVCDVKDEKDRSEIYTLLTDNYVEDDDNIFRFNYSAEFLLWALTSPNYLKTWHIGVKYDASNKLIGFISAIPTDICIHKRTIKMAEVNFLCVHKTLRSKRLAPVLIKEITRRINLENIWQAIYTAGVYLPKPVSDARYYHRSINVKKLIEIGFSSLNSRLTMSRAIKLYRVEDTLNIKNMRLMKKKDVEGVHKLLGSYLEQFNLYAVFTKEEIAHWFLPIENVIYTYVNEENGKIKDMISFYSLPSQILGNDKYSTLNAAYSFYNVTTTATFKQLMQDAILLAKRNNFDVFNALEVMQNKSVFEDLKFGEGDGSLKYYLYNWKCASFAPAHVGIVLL
Excerpt: as §1

PfNMT = molecular target: T3, PfNMT (Plasmodium falciparum, UniProt Q9U419); experiment: Fluorogenic NMT inhibition assay, PfNMT; type: biochemical; settings: recombinant enzyme; mean of duplicate or triplicate experiments
T3 sequence (Q9U419 1-410): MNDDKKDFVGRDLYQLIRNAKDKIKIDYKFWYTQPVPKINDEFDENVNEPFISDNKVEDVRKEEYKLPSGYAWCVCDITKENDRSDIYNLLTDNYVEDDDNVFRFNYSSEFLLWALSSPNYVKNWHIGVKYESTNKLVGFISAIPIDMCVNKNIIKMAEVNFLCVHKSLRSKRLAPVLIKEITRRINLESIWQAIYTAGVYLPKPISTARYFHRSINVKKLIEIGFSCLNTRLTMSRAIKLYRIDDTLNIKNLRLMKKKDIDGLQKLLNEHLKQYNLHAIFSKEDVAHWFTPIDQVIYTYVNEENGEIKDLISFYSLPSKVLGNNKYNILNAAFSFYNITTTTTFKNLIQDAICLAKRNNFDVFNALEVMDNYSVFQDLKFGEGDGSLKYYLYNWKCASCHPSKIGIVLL
Excerpt: as §1

[1] = hydroxyl substituted for the N-terminal amine

Molecule	loss in activity, Leishmania NMT (LdNMT; [1]) [folds]	loss in activity, Human NMT (HsNMT1; [1]) [folds]	Vmax as substrate (Leishmania NMT; Leishmania NMT)	Km (Leishmania NMT; Leishmania NMT) [µM]	IC50 (PvNMT) [µM]	IC50 (PfNMT) [µM]	IC50 (LdNMT) [µM]	IC50 (HsNMT1) [µM]	substrate activity (Leishmania NMT)	KM as substrate (Leishmania NMT; Leishmania NMT)
NCCCC[C@H](NC(=O)[C@H](CO)NC(=O)CCCCCCCCCO)C(=O)NCCC1CCCCC1 [Compound 46]	> 100	1000								
GSNKSKPK-NH2 [reference compound]			113616.7 ± 3962.0 RFU.s-1	22.6						
NCCCCCCCCCC(=O)N[C@@H](CO)C(=O)N[C@@H](CCCCN)C(N)=O [Compound 22]					22.9 ± 3.5	> 100	1.36 ± 0.2	1.36 ± 0.29		
NCCCCCCCCCCC(=O)N[C@@H](CO)C(=O)N[C@@H](CCCCN)C(=O)NCCC1CCCCC1 [Compound 9]					1.04 ± 0.01	> 100	0.14 ± 0.01			
NCCCC[C@H](NC(=O)[C@H](CO)NC(=O)CCCCCCCCCn1ccnc1)C(=O)NCCC1=CCCCC1 [Compound 18]					> 100	> 100	> 100	> 100		
Cc1nccn1CCCCCCCCCCC(=O)N[C@@H](CO)C(=O)N[C@@H](CCCCN)C(=O)NCCC1=CCCCC1 [Compound 19]					> 100	> 100	> 100	> 100		
Cc1nccn1CCCCCCCCCCC(=O)N[C@@H](CO)C(=O)N[C@@H](CCCCN)C(=O)NCCC1CCCCC1 [Compound 5]					> 100	> 100	> 100	21.8 ± 0.8		
NCCCCCCCCCCC(=O)N[C@@H](CO)C(=O)N[C@@H](CCCCN)C(=O)O [Compound 25] (H-[Aun]-Ser-Lys-OH)					> 100	> 100	86.7 ± 10.4	39.2 ± 2		
NCCCCCCCC(=O)N[C@@H](CO)C(=O)N[C@@H](CCCCN)C(N)=O [Compound 24] (H-[Aoc]-Ser-Lys-NH2)					> 100	> 100	61.9 ± 4.7	> 100		
Cc1nccn1CCCCCCCCCC(=O)N[C@@H](CO)C(=O)N[C@@H](CCCCN)C(=O)NCCC1CCCCC1 [Compound 6]					> 100	> 100	0.63 ± 0.01	7.92 ± 0.83		
Cc1nccn1CCCCCCCCC(=O)N[C@@H](CO)C(=O)N[C@@H](CCCCN)C(=O)NCCC1CCCCC1 [Compound 7]					> 100	> 100	3.42 ± 0.34	49.9 ± 10.6		
NCCCC[C@H](NC(=O)[C@H](CO)NC(=O)CCCCCCNC(=O)CN)C(=O)NCCC1CCCCC1 [Compound 27]			6596.4 ± 281.4 RFU.s-1	1.3					substrate	
NCCCCCCCCCCC(=O)N[C@@H](CO)C(=O)N[C@@H](CCCCN)C(=O)NCCC1=CCCCC1 [Compound 15]					12.9 ± 1.07	> 100	6.6 ± 1.28	2.3 ± 0.14		
NCCCC[C@H](NC(=O)[C@H](CO)NC(=O)CCCCCCCCCCn1ccnc1)C(=O)NCCC1CCCCC1 [Compound 1]					> 100	> 100	25.8 ± 8.2	47.6 ± 3.8		
NCCCC[C@H](NC(=O)[C@H](CO)NC(=O)CCCCCCCCCCn1ccnc1)C(=O)NCCC1=CCCCC1 [Compound 17]					> 100	> 100	> 100	> 100		
NCCCC[C@H](NC(=O)[C@H](CO)NC(=O)CCCCCCCCn1ccnc1)C(=O)NCCC1CCCCC1 [Compound 3]					> 100	> 100	16.7 ± 2.5	> 100		
NCCCCCCCCCC(=O)N[C@@H](CO)C(=O)N[C@@H](CCCCN)C(=O)NCCC1=CCCCC1 [Compound 16]					3.55 ± 0.38	> 100	0.44 ± 0.04	0.67 ± 0.04		
NCCCCCCCC(=O)N[C@@H](CO)C(=O)N[C@@H](CCCCN)C(=O)NCCC1CCCCC1 [Compound 12]					> 100	> 100	1.39 ± 0.18	6.75 ± 0.45		
Cc1nccn1CCCCCCCC(=O)N[C@@H](CO)C(=O)N[C@@H](CCCCN)C(=O)NCCC1CCCCC1 [Compound 8]					> 100	> 100	1.46 ± 0.22	82.2 ± 14		
NCCCCCCCCC(=O)N[C@@H](CO)C(=O)N[C@@H](CCCCN)C(N)=O [Compound 23]					> 100	> 100	27.1 ± 2.6	33.1 ± 2.5		
NCCCCCCCCCCC(=O)N[C@@H](CO)C(=O)N[C@@H](CCCCN)C(N)=O [Compound 21] (H-[Aun]-Ser-Lys-NH2)					> 100	> 100	13.3 ± 2	5.4 ± 0.41		
CC(=O)N[C@@H](CO)C(=O)N[C@@H](CCCCN)C(=O)NCCC1CCCCC1 [Compound 14]					> 100	> 100	> 100	> 100		
NCCCCCCCCCC(=O)N[C@@H](CO)C(=O)N[C@@H](CCCCN)C(=O)O [Compound 26]					> 100	> 100	> 100	92.1 ± 17.6		
Cc1nccn1CCCCCCCCCC(=O)N[C@@H](CO)C(=O)N[C@@H](CCCCN)C(=O)NCCC1=CCCCC1 [Compound 20]					> 100	> 100		> 100		
NCCCC[C@H](NC(=O)[C@H](CO)NC(=O)CCCCCCCn1ccnc1)C(=O)NCCC1CCCCC1 [Compound 4]					> 100	> 100	34.8 ± 3.7	> 100		
NCCCC[C@H](NC(=O)[C@H](CO)NC(=O)CCCCCCCCCn1ccnc1)C(=O)NCCC1CCCCC1 [Compound 2]					> 100	> 100	10.6 ± 1.6	44 ± 7.1		
C[C@H](N)C(=O)NCCCCCCC(=O)N[C@@H](CO)C(=O)N[C@@H](CCCCN)C(=O)NCCC1CCCCC1 [Compound 28]			Not measurable						no detectable substrate activity	Not measurable
NCCCCCCCCC(=O)N[C@@H](CO)C(=O)N[C@@H](CCCCN)C(=O)NCCC1CCCCC1 [Compound 11]					> 100	> 100	2.01 ± 0.3	7.68 ± 0.86		
